Data reported in US10626103B2, “Inhibitor of lysine specific demethylase-1” (CELGENE QUANTICEL RESEARCH, INC., priority 2014, dated 2020).

Key:
[1] = test system: CD11b expression in THP-1 (AML) cells; experiment: LSD1 CD11b cellular assay (flow cytometry); format: cell-based; conditions: THP-1 cells, 4 days
Protocol: To analyze LSD1 inhibitor efficacy in cells, a CDL11b flow cytometry assay was performed. LSD1 inhibition induces CD11b expression in THP-1 (AML) cells which can be measured by flow cytometry. […] LSD 1 test compounds were serially diluted in DMSO. The dilutions were added to each well accordingly to a final concentration of 0.2% DMSO. The cells were incubated at 37 degrees Celsius in 5% CO2 for 4 days. 250 μL of each well was transferred to a well in a 96 well round bottom plate. The plate was centrifuged at 1200 rpm at 4 degrees Celsius in a Beckman Coulter Alegra 6KR centrifuge for 5 minutes. The media was removed leaving the cells at the bottom of the wells. The cells were washed in 100 μL cold HBSS (Hank's Balanced Salt Solution) plus 2% BSA (Bovine Serum Albumin) solution and centrifuged at 1200 rpm at 4 degrees Celsius for 5 minutes. The wash was removed. […] The cells were centrifuged and washed two times in 100 μl HBSS plus 2% BSA. After the final spin the cells were resuspended in 100 μL HBSS plus 2% BSA containing 1 ug/mL DAPI (4′,6-diamidino-2-phenylindole). The cells were then analyzed by flow cytometry in a BD FACSAria machine. Cells were analyzed for CD11b expression. The percent of CD11b expressing cells for each inhibitor concentration was used to determine an IC50 curve for each compound analyzed.

full-length human LSD1 = full-length human LSD1 (Homo sapiens (Human), UniProt O60341); experiment: In vitro enzyme inhibition assay LSD-1 (TR-FRET); format: biochemical; conditions: H3K4me1-biotin peptide
Protocol: This assay determines the ability of a test compound to inhibit LSD1 demethylase activity.
The enzymatic assay of LSD1 activity is based on Time Resolved-Fluorescence Resonance Energy Transfer (TR-FRET) detection.
Plates were read by EnVision Multilabel Reader in TR-FRET mode (excitation at 320 nm, emission at 615 nm and 665 nm) after 1 hour incubation at room temperature.
The ability of the compounds disclosed herein to inhibit LSD1 activity was quantified and the respective IC50 value was determined.

Cn1cc2cc(-c3c(-c4ccc(C#N)c(F)c4)cc(C(=O)NCC4CCNC4)n3C)ccc2n1 (stereo in doubt) [Example 33, N-[((3S)pyrrolidin-3-yl)methyl][4-(4-cyano-3-fluorophenyl)-1-methyl-5-(2-methyl(2H-indazol-5-yl))pyrrol-2-yl]carboxamide]
IC50 [1]: < 100 nM

Cc1ccc(-c2c(-c3ccc(C#N)cc3)cc(C(=O)N3CCC[C@@H](N)C3)n2C)cc1 [Example 1, 4-[5-(3-(R)-amino-piperidine-1-carbonyl)-1-methyl-2-p-tolyl-1H-pyrrol-3-yl]-benzonitrile]
IC50 ([1]; Homo sapiens, 96 h): < 100 nM
IC50 (full-length human LSD1): < 100 nM

COc1ccc(-c2c(-c3ccc(C#N)c(F)c3)cc(C(=O)N3CCC[C@@H](N)C3)n2C)cc1 [Example 2, 4-[5-(3-(R)-amino-piperidine-1-carbonyl)-2-(4-methoxy-phenyl)-1-methyl-1H-pyrrol-3-yl]-2-fluoro-benzonitrile]
IC50 ([1]; Homo sapiens, 96 h): < 100 nM
IC50 (full-length human LSD1): < 100 nM

Cc1ccc(-c2c(-c3ccc(C#N)cc3)cc(C(=O)N3CCC[C@@H](N)C3)n2CCO)cc1 [Example 3, 4-[5-(3-(R)-amino-piperidine-1-carbonyl)-1-(2-hydroxy-ethyl)-2-p-tolyl-1H-pyrrol-3-yl]-benzonitrile]
IC50 ([1]; Homo sapiens, 96 h): < 100 nM
IC50 (full-length human LSD1): < 100 nM

Cc1ccc(-c2c(-c3ccc(C#N)c(F)c3)cc(C(=O)N3CCC[C@@H](N)C3)n2CCO)cc1 [Example 4, 4-[5-(3-(R)-amino-piperidine-1-carbonyl)-1-(2-hydroxy-ethyl)-2-p-tolyl-1H-pyrrol-3-yl]-2-fluoro-benzonitrile]
IC50 ([1]; Homo sapiens, 96 h): < 100 nM
IC50 (full-length human LSD1): < 100 nM

Cc1ccc(-c2c(-c3ccc(C#N)cc3)cc(C(=O)N3CCC[C@@H](N)C3)n2C)cn1 [Example 5, 4-[5-(3-(R)-amino-piperidine-1-carbonyl)-1-methyl-2-(6-methyl-pyridin-3-yl)-1H-pyrrol-3-yl]-benzonitrile]
IC50 ([1]; Homo sapiens, 96 h): < 100 nM
IC50 (full-length human LSD1): < 100 nM

Cn1c(C(=O)N2CCC[C@@H](N)C2)cc(-c2ccc(C#N)cc2)c1-c1ccncc1 [Example 6, 4-[5-(3-(R)-amino-piperidine-1-carbonyl)-1-methyl-2-pyridin-4-yl-1H-pyrrol-3-yl]-benzonitrile]
IC50 ([1]; Homo sapiens, 96 h): < 100 nM
IC50 (full-length human LSD1): < 100 nM

COc1ccc(-c2c(-c3ccc(C#N)cc3)cc(C(=O)N3CCC[C@@H](N)C3)n2CCO)cc1 [Example 7, 4-[5-(3-(R)-amino-piperidine-1-carbonyl)-1-(2-hydroxy-ethyl)-2-(4-methoxy-phenyl)-1H-pyrrol-3-yl]-benzonitrile]
IC50 ([1]; Homo sapiens, 96 h): < 100 nM
IC50 (full-length human LSD1): < 100 nM

COc1ccc(-c2c(-c3ccc(C#N)c(F)c3)cc(C(=O)N3CCC[C@@H](N)C3)n2CCO)cc1 [Example 8, 4-[5-(3-(R)-amino-piperidine-1-carbonyl)-1-(2-hydroxy-ethyl)-2-(4-methoxy-phenyl)-1H-pyrrol-3-yl]-2-fluoro-benzonitrile]
IC50 ([1]; Homo sapiens, 96 h): < 100 nM
IC50 (full-length human LSD1): < 100 nM

Cc1ccc(-c2c(-c3ccc(C#N)c(F)c3)cc(C(=O)N3CCC[C@@H](N)C3)n2CCCO)cc1 [Example 9]
IC50 ([1]; Homo sapiens, 96 h): < 100 nM
IC50 (full-length human LSD1): < 100 nM

Cn1c(C(=O)N2CCC[C@@H](N)C2)cc(-c2ccc(C#N)c(F)c2)c1-c1ccc2c(c1)ncn2C [Example 10, 4-[5-(3-(R)-amino-piperidine-1-carbonyl)-1-methyl-2-(1-methyl-1H-benzoimidazol-5-yl)-1H-pyrrol-3-yl]-2-fluoro-benzonitrile]
IC50 ([1]; Homo sapiens, 96 h): < 100 nM
IC50 (full-length human LSD1): < 100 nM

COc1ccc(-n2c(-c3ccc(C#N)c(F)c3)nc(C(=O)N3CC[C@@H](N)C3)c2C)cc1 [Example 13, 4-[4-[(3R)-3-aminopyrrolidine-1-carbonyl]-1-(4-methoxyphenyl)-5-methylimidazol-2-yl]-2-fluorobenzonitrile]
IC50 ([1]; Homo sapiens, 96 h): 100 to 1000 nM
IC50 (full-length human LSD1): < 100 nM

COc1ccc(-n2cc(C(=O)N3CCC[C@@H](N)C3)nc2-c2ccc(C#N)c(F)c2)cc1F [Example 19, 4-[4-[(3R)-3-aminopiperidine-1-carbonyl]-1-(3-fluoro-4-methoxyphenyl)imidazol-2-yl]-2-fluorobenzonitrile]
IC50 ([1]; Homo sapiens, 96 h): < 100 nM
IC50 (full-length human LSD1): < 100 nM

COc1ccc(-n2cc(C(=O)N3CC[C@H](N)C3)nc2-c2ccc(C#N)c(F)c2)cc1F [Example 20, 4-[4-[(3S)-3-aminopyrrolidine-1-carbonyl]-1-(3-fluoro-4-methoxyphenyl)imidazol-2-yl]-2-fluorobenzonitrile]
IC50 ([1]; Homo sapiens, 96 h): < 100 nM
IC50 (full-length human LSD1): < 100 nM

Cc1c(C(=O)N2CC[C@H](N)C2)nc(-c2ccc(C#N)c(F)c2)n1-c1ccc2c(cnn2C)c1 [Example 24, 4-[4-[(3S)-3-aminopyrrolidine-1-carbonyl]-5-methyl-1-(1-methylindazol-5-yl)imidazol-2-yl]-2-fluorobenzonitrile]
IC50 ([1]; Homo sapiens, 96 h): < 100 nM
IC50 (full-length human LSD1): < 100 nM

Cn1cc2cc(-n3cc(C(=O)N4CCC[C@@H](N)C4)nc3-c3ccc(C#N)c(F)c3)ccc2n1 [Example 25, 4-[4-[(3R)-3-aminopiperidine-1-carbonyl]-1-(2-methylindazol-5-yl)imidazol-2-yl]-2-fluorobenzonitrile]
IC50 (full-length human LSD1): < 100 nM

Cn1cc2cc(-n3cc(C(=O)N4CC[C@H](N)C4)nc3-c3ccc(C#N)c(F)c3)ccc2n1 [Example 26, 4-[4-[(3S)-3-aminopyrrolidine-1-carbonyl]-1-(2-methylindazol-5-yl)imidazol-2-yl]-2-fluorobenzonitrile]
IC50 (full-length human LSD1): < 100 nM

Cn1ncc2cc(-n3cc(C(=O)N4CCC[C@@H](N)C4)nc3-c3ccc(C#N)c(F)c3)ccc21 [Example 27, 4-[4-[(3R)-3-aminopiperidine-1-carbonyl]-1-(1-methylindazol-5-yl)imidazol-2-yl]-2-fluorobenzonitrile]
IC50 (full-length human LSD1): < 100 nM

Cn1ncc2cc(-n3cc(C(=O)N4CC[C@H](N)C4)nc3-c3ccc(C#N)c(F)c3)ccc21 [Example 28, 4-[4-[(3S)-3-aminopyrrolidine-1-carbonyl]-1-(1-methylindazol-5-yl)imidazol-2-yl]-2-fluorobenzonitrile]
IC50 (full-length human LSD1): < 100 nM

Cn1cc2cc(-c3c(-c4ccc(C#N)c(F)c4)cc(C(=O)N4CCC[C@@H](N)C4)n3C)ccc2n1 [Example 29, 4-{5-[((3R)-3-aminopiperidyl)carbonyl]-1-methyl-2-(2-methyl(2H-indazol-5-yl))pyrrol-3-yl}-2-fluorobenzenecarbonitrile]
IC50 ([1]; Homo sapiens, 96 h): < 100 nM
IC50 (full-length human LSD1): < 100 nM

Cn1cc2cc(-c3c(-c4ccc(C#N)c(F)c4)cc(C(=O)N[C@@H]4CCNC4)n3C)ccc2n1 [Example 30, N-((3R)pyrrolidin-3-yl)[4-(4-cyano-3-fluorophenyl)-1-methyl-5-(2-methyl(2H-indazol-5-yl))pyrrol-2-yl]carboxamide]
IC50 ([1]; Homo sapiens, 96 h): < 100 nM
IC50 (full-length human LSD1): < 100 nM

CN(CCN)C(=O)c1cc(-c2ccc(C#N)c(F)c2)c(-c2ccc3nn(C)cc3c2)n1C [Example 31, N-(2-aminoethyl)[4-(4-cyano-3-fluorophenyl)-1-methyl-5-(2-methyl(2H-indazol-5-yl))pyrrol-2-yl]-N-methylcarboxamide]
IC50 ([1]; Homo sapiens, 96 h): < 100 nM
IC50 (full-length human LSD1): < 100 nM

COc1ccc(-c2c(-c3ccc(C#N)c(F)c3)cc(C(=O)N3CCC[C@@H](N)C3)n2CC(N)=O)cc1 [Example 37, (R)-2-(5-(3-aminopiperidine-1-carbonyl)-3-(4-cyano-3-fluorophenyl)-2-(4-methoxyphenyl)-1H-pyrrol-1-yl)acetamide]
IC50 (full-length human LSD1): < 100 nM

COc1ccc(-c2c(-c3ccc(C#N)c(F)c3)cc(C(=O)N3CCC[C@@H](N)C3)n2CCCC(=O)O)cc1 [Example 41, 4-{5-[((3R)-3-aminopiperidyl)carbonyl]-3-(4-cyano-3-fluorophenyl)-2-(4-methoxyphenyl)pyrrolyl}butanoic acid]
IC50 ([1]; Homo sapiens, 96 h): 100 to 1000 nM

CN1CC[C@@H](NC(=O)c2cn(-c3ccc4nn(C)c(Cl)c4c3)c(-c3ccc(C#N)c(F)c3)n2)C1 [Example 106, 1-(3-Chloro-2-methylindazol-5-yl)-2-(4-cyano-3-fluorophenyl)-N-[(3R)-1-methylpyrrolidin-3-yl]imidazole-4-carboxamide]
IC50 (full-length human LSD1): < 100 nM

CN1CC[C@H](NC(=O)c2cn(-c3ccc4nn(C)c(Cl)c4c3)c(-c3ccc(C#N)c(F)c3)n2)C1 [Example 107, 1-(3-Chloro-2-methylindazol-5-yl)-2-(4-cyano-3-fluorophenyl)-N-[(3S)-1-methylpyrrolidin-3-yl]imidazole-4-carboxamide]
IC50 (full-length human LSD1): < 100 nM

Cc1c(C(=O)N[C@@H]2CCN(C)C2)nc(-c2ccc(C#N)c(F)c2)n1-c1ccc2nn(C)cc2c1 [Example 108, 2-(4-Cyano-3-fluorophenyl)-5-methyl-1-(2-methylindazol-5-yl)-N-[(3R)-1-methylpyrrolidin-3-yl]imidazole-4-carboxamide]
IC50 (full-length human LSD1): < 100 nM

Cc1c(C(=O)N[C@H]2CCN(C)C2)nc(-c2ccc(C#N)c(F)c2)n1-c1ccc2nn(C)cc2c1 [Example 109, 2-(4-Cyano-3-fluorophenyl)-5-methyl-1-(2-methylindazol-5-yl)-N-[(3S)-1-methylpyrrolidin-3-yl]imidazole-4-carboxamide]
IC50 (full-length human LSD1): < 100 nM
